Where a SMILES comes first, the peptide text is derived from it. The star is where a group is joined. Cbz = O=C(OCc1ccccc1)*
Key:
cyclin D1 [1] = target: T1, cyclin D1 (Homo sapiens, UniProt P24385); assay: In vivo SUMOylation and ubiquitylation assay (co-immunoprecipitation, western blotting); type: cell-based
T1 construct: endogenous in cells; host or cells: HCT-116
Procedure: (§1) (a, b&d) In vivo SUMOylation and ubiquitination assay. As for (a), HCT-116 cells were treated with As2O3 for 16 h (2.5 μM). Cell lysates were harvested at different time points (0, 1, 4 and 16 h). As for (b), WT or mutant cyclin D1 (K149R, T286A, DM) construct was stably transfected into HCT-116 cells. Then the cells were treated with As2O3 for 1 h. As for (d), HCT-116 cells were treated with As2O3 for 16 h (2.5 μM) in the absence or presence of MG132 (10 μM, 6 h of incubation). The SUMOylated and ubiquitylated cyclin D1 was detected as described in FIG. 1f. Cyclin D1 protein levels were detected using anti-cyclin D1 antibody (a&d) or anti-HA-antibody (b) by western blotting. (c) WT or mutant cyclin D1 (K149R, T286A, DM) construct was stably transfected into HCT-116 cells. Then the cells were treated with As2O3 for 16 h. Cyclin D1 protein levels were detected using anti-HA-antibody by western blotting. (e) TUNEL staining. WT or mutant cyclin D1 (K149R, T286A) construct was stably transfected into HCT-116 cells. Then the cells were treated with As2O3 (2.5 μM) for 16 h. The apoptotic cells were detected using Promega's DEADEND Colorimetric TUNEL System. Yellow arrows are pointing at apoptotic cells. (f) Flow cytometry. WT or mutant cyclin D1 (K149R) construct was stably transfected into HCT-116 cells. Then the cells were treated with As2O3 for 16 h (2.5 μM). Cell cycle progression was detected by flow cytometry. (As, arsenic trioxide)
(§2) SUMOylated cyclin D1 or ubiquitylated cyclin D1 was detected by co-immunoprecipitation using anti-SUMO-2/3 antibody or anti-ubiquitin antibody conjugated beads (Enzo Life Science), followed by immunoblotting with anti-cyclin D1 antibody or anti-HA antibody for cyclin D1 detection.

cyclin D1 [2] = assay: Cyclin D1 protein levels by western blotting in transfected HEK293 cells with or without MG132; type: cell-based, human
Procedure: Ubc9 (a), SUMO1 (b), SUMO2 (c), SUMO3 (d) together with SENP1 constructs was co-transfected with cyclin D1 into HEK293 cells in the absence or presence of proteasome inhibitor MG132 (10 μM, 6 h of incubation). Cyclin D1 protein levels were detected through western blotting. (e) siRNA specific for Ubc9 was transiently transfected in human colon cancer cell HCT116 cells. Endogenous cyclin D1 protein levels were detected through western blotting. (f) In vivo SUMOylation and ubiquitination assay. HA-cyclin D1 was co-transfected with Ubc9 and SENP1 expression plasmids into HEK293 cells in the presence of MG132 (10 μM, 6 h of incubation). […]
(a) Cell lysates were extracted from different tissues of wt or Itch-KO mice. Endogenous cyclin D1 protein levels were detected using anti-cyclin D1 antibody by western blotting. […] Endogenous cyclin D1 protein levels were detected using anti-cyclin D1 antibody by western blotting. […] Cyclin D1 protein levels were detected using anti-HA antibody by western blotting. […] 24 h after transfection, the cell lysates were collected, the ubiquitylated cyclin D1 was detected as described in FIG. 1f. […] Cyclin D1 protein levels were detected using anti-HA antibody by western blotting. […]
Western blotting and immunoprecipitation (IP) were performed as previously described (54). The interaction between endogenous Cyclin D1 and Itch was determined in HEK293 cells. […]

cyclin D1 [3] = target: T2, cyclin D1 (Homo sapiens, UniProt P24385, K149R); assay: Cyclin D1 protein levels by western blotting in HCT-116 cells; type: cell-based; settings: HCT-116 cells stably expressing K149R mutant cyclin D1, treated 16 h
T2 construct: endogenous in cells; host or cells: HCT-116
Procedure: as §1
(§3) 48 h later, the cyclin D1 protein levels were detected through western blotting.
(§4) Western blotting and immunoprecipitation (IP) were performed as previously described (54). The interaction between endogenous Cyclin D1 and Itch was determined in HEK293 cells. Proteasome inhibitor MG132 (10 μM) (Sigma, St. Louis, Mo.) was added to the cell culture 6 hours before cells were harvested for immunoprecipitation assay. […]

cyclin D1 [4] = target: T3, cyclin D1 (Homo sapiens, UniProt P24385, K149R/T286A); assay: as above; type: cell-based; settings: HCT-116 cells stably expressing K149R/T286A mutant cyclin D1, treated 16 h
T3 construct: endogenous in cells; host or cells: HCT-116
Procedure: as §1, §3, §4

cyclin D1 [5] = assay: as above; type: cell-based, human; settings: HCT-116 cells, Itch siRNA, As2O3 2.5 μM, 48 h
Procedure: as §1, §3, §4

HCT-116 cells [6] = assay: Cell cycle analysis by flow cytometry; type: cell-based, human; settings: HCT-116 cells transfected with K149R mutant cyclin D1 compared with WT, As2O3 2.5 μM, 16 h
Procedure: as §1, with “WT or mutant cyclin D1 (K149R, T286A) construct was stably transfected into HCT-116 cells. Then the cells were treated with As2O3 (2.5 μM) for 16 h.” left out, “Yellow arrows are pointing at apoptotic cells. (f) Flow cytometry. WT or mutant cyclin D1 (K149R) construct was stably transfected into HCT-116 cells. Then the cells were treated with As2O3 for 16 h (2.5 μM).” left out, “(As, arsenic trioxide)” left out
FACS analysis was performed as described in the research by Santra et al (55). […] FACS samples were analyzed with a FACSCANTO Flow Cytometry System (BD Biosciences). And the data were analyzed using FlowJo 7.6 software according to the manufacturer's instruction.

cyclin D1 [7] = target: T4, cyclin D1 (Homo sapiens, UniProt P24385, T286A); assay: In vivo SUMOylation and ubiquitylation assay (co-immunoprecipitation, western blotting); type: cell-based; settings: HCT-116 cells stably expressing T286A mutant cyclin D1, treated 1 and 16 hours
T4 construct: endogenous in cells; host or cells: HCT-116
Procedure: as §1, §2

HCT-116 cells [8] = assay: TUNEL staining of apoptotic cells; type: cell-based, human; settings: 16 h
Procedure: as §1
Cell apoptosis was detected using fluorescent in situ terminal deoxynucleotidyl transferase-mediated uridine 5′-triphosphate-biotin nick end labeling (TUNEL staining). Sections were first permeabilized in 0.1% Triton X-100 in phosphate-buffered saline (PBS) for 8 mins. TUNEL reaction mixture was obtained by adding terminal deoxynucleotidyl transferase to nucleotide mixture, as instructed by the manufacturer's manual (DEADEND Fluorometric TUNEL System, Promega). Sections were counterstained nuclei with 4′-6-Diamidino-2-phenylindole (DAPI).

tumor = settings: reference 52; cited from earlier work
solid and liquid tumors = settings: references 48-51; cited from earlier work

T1 sequence (P24385 whole entry): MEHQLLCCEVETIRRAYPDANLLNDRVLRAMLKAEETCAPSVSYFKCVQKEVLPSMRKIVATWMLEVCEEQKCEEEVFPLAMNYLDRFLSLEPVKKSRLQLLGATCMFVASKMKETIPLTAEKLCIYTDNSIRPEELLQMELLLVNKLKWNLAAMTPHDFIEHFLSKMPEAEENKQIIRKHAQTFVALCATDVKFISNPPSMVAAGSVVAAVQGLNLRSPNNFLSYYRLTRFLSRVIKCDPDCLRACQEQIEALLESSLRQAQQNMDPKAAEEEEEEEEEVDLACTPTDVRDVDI
T4 sequence (P24385 whole entry T286A): as the sequence (P24385 whole entry) above, with T286A counted along it
T2 sequence (P24385 whole entry K149R): as the sequence (P24385 whole entry) above, with K149R counted along it
T3 sequence (P24385 whole entry K149R/T286A): as the sequence (P24385 whole entry) above, with K149R, T286A counted along it

| Molecule | effect on As2O3-mediated cyclin D1 SUMOylation and polyubiquitination (cyclin D1 [1]; HCT-116 cells, As2O3 2.5 μM 16 h, MG132 10 μM 6 h) | effect on Itch-induced cyclin D1 degradation (cyclin D1 [2]; HEK293 cells co-transfected with Itch and cyclin D1, MG132 10 μM 6 h) | effect on degradation of cyclin D1 caused by Ubc9 (cyclin D1 [2]; HEK293 cells co-transfected with Ubc9 and cyclin D1, MG132 10 μM 6 h) | degradation of cyclin D1 (cyclin D1 [3]) | degradation of cyclin D1 (cyclin D1 [4]) | degradation of cyclin D1 under silencing of Itch expression (cyclin D1 [5]) | G1 arrest (HCT-116 cells [6]) | SUMOylation, polyubiquitination and degradation of cyclin D1 (cyclin D1 [1]; HCT-116 cells stably expressing WT cyclin D1, treated 1 and 16 hours) | SUMOylated- and polyubiquitinated-cyclin D1 (cyclin D1 [1]; HCT-116 cells, As2O3 2.5 μM, 1 h after treatment) | modified (SUMOylated/polyubiquitinated) cyclin D1 (cyclin D1 [1]; HCT-116 cells, As2O3 2.5 μM, after 16 h treatment) | SUMOylation, polyubiquitination and degradation of cyclin D1 (cyclin D1 [7]) | cell apoptosis (TUNEL) (HCT-116 cells [8]; HCT-116 cells stably transfected with K149R mutant cyclin D1, As2O3 2.5 μM) | cell apoptosis (TUNEL) (HCT-116 cells [8]; HCT-116 cells stably transfected with K149R mutant cyclin D1, As2O3 2.5 μM, listed as arsenic trioxide) | cell apoptosis (TUNEL) (HCT-116 cells [8]; HCT-116 cells stably transfected with T286A cyclin D1, As2O3 2.5 μM) | cell apoptosis (TUNEL) (HCT-116 cells [8]; HCT-116 cells stably transfected with WT cyclin D1, As2O3 2.5 μM) | tumor size in nude mice (tumor) | cell apoptosis in solid and liquid tumors (solid and liquid tumors) |
| --- | --- | --- | --- | --- | --- | --- | --- | --- | --- | --- | --- | --- | --- | --- | --- | --- | --- |
| CC(C)C[C@@H](C=O)NC(=O)[C@H](CC(C)C)NC(=O)[C@H](CC(C)C)NC(=O)OCc1ccccc1 [MG132] (Cbz-Leu-Leu-Leu-aldehyde) | reversed | reversed the effect of Itch on cyclin D1 degradation | reversed the degradation of cyclin D1 |  |  |  |  |  |  |  |  |  |  |  |  |  |  |
| arsenic trioxide [As2O3] |  |  |  | no effect | no effect | did not abrogated degradation of cyclin D1 | failed to induce efficient G1 arrest | induced SUMOylation, polyubiquitination and degradation of cyclin D1 | accumulated | disappeared | induced SUMOylation, polyubiquitination and degradation of cyclin D1 | much lower | significantly decreased | induced accelerated cell apoptosis | induced accelerated cell apoptosis | tumor shrink | induces cell apoptosis |

Reference: patent US20160015743A1, “METHODS FOR TREATING CANCER” (priority 2013, published 2016)
